The results in this text go back to patent US20250179055A1, “Substituted 2-(pyrrolidine-3-yl)acetic acid derivative, preparation method and use thereof” (INNOVSTONE THERAPEUTICS LIMITED, priority 2023, published 2025).

Structures are written as SMILES.

For one assay, the target named is Lp(a) assembly in HepG2 cells overexpressing ApoA protein (Homo sapiens (Human), UniProt P08519). Nature of the assay: ELISA assay on screening Lp(a) assembly inhibition.
Chain of Lp(a) assembly in HepG2 cells overexpressing ApoA protein (P08519 20-2040): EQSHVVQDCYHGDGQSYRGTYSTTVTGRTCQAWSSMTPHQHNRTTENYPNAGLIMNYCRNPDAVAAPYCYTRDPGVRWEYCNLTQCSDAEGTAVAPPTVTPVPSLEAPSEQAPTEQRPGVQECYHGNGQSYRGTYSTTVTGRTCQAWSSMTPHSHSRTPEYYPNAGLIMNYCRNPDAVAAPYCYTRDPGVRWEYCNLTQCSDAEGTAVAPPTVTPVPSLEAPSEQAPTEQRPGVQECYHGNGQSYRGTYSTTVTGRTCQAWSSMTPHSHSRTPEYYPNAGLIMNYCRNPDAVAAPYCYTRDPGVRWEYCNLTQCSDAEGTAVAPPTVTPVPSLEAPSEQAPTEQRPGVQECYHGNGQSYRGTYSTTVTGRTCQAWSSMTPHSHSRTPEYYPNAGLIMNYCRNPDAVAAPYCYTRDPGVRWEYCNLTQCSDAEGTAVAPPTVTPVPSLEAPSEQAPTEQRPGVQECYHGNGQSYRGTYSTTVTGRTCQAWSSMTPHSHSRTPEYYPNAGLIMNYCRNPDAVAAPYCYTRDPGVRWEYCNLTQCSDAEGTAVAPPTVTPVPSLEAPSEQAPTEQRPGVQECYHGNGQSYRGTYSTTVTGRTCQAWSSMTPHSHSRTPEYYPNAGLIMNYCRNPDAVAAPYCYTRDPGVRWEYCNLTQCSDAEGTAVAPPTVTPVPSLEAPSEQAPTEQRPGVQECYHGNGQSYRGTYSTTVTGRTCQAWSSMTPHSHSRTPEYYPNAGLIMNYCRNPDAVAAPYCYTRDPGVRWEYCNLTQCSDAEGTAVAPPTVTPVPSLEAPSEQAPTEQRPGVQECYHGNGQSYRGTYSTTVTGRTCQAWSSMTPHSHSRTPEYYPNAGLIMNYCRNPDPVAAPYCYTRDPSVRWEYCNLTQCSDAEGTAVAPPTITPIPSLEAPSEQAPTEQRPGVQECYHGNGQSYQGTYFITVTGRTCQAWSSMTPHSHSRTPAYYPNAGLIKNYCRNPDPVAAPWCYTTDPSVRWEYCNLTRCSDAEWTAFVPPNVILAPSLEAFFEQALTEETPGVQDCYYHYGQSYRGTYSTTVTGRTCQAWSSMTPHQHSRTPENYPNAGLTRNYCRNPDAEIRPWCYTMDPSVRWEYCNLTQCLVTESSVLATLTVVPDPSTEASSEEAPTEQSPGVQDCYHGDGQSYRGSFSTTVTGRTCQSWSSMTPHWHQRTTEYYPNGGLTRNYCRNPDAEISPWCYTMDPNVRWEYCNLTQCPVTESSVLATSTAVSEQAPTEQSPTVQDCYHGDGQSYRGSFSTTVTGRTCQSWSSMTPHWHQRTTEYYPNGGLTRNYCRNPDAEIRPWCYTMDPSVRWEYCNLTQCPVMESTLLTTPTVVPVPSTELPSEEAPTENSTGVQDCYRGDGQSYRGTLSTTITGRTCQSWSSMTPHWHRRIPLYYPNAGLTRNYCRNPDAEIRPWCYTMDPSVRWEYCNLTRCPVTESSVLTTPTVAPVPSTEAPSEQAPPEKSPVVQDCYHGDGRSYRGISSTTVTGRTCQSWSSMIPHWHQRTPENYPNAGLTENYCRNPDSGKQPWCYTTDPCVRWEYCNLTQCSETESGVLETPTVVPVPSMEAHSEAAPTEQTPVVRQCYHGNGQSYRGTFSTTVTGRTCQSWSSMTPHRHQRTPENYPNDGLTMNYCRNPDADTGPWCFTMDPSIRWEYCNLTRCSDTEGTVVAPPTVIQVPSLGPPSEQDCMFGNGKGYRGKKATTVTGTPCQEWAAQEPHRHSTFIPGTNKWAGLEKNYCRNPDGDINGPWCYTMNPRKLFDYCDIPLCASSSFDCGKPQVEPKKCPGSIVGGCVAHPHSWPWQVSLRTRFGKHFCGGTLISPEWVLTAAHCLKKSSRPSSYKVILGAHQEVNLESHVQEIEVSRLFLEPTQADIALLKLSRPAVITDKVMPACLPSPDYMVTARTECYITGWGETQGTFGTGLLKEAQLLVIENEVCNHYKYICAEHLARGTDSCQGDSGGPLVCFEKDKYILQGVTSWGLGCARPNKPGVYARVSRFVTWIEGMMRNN
Conditions: not given
It counts as cell-based. As to the method:
Test Example 1 and Methods of ELISA Assay on Screening Lp(a) Assembly Inhibition
• 1) Preheated the culture media, DPBS, and pancreatin in a 37° C. water bath in advance. • 2) Digested cells with pancreatin, transferred the cell suspension to a 15 mL centrifuge tube, and centrifuged at 1000 rpm for 5 min. • 3) Resuspended the cells with culture media and transferred the cell suspension to a new T75 cell culture flask. • 4) Cultured at 37° C. in a 5% CO2 incubator.
• 1) Seeded HepG2 cells overexpressing of ApoA protein into a 96-well plate at 100 μL per well and incubated overnight for attachment. • 2) Replaced with fresh culture media the next day, then added diluted compounds, and cultured the cell plate in a 5% CO2, 37° C. incubator for 24 h.
• 1) Added 10 μL of 1.5 M EACA to each well. • 2) Centrifuged at 1000 rpm for 1 min, and transferred 100 μL of cell culture supernatant to a pre-coated ELISA plate.
• 1) Added 100 μL of capture antibody to each well of a pre-coated ELISA plate and incubated overnight at 25° C. • 2) Added 300 μL of washing solution to each well and washed 5 times for 1 min each time. • 3) Added 100 μL of blocking solution to each well and incubated at 25° C. for 2 h. • 4) Added 300 μL of washing solution to each well and washed 5 times for 1 min each time. • 5) Added 100 μL of sample to each well and incubated at 25° C. for 1 h. • 6) Added 300 μL of washing solution to each well and washed 5 times for 1 min each time. • 7) Added 100 μL of detection antibody to each well and incubated at 25° C. for 1 h. • 8) Added 300 μL of washing solution to each well and washed 5 times for 1 min each time. • 9) Added 100 μL substrate solution (Color Reagent A: Color Reagent B, 1:1) to each well and incubated for 20 min at 25° C. in the dark. • 10) Added […] of stop solution to each well, gently blowed and sucked several times with the pipette tip, and read within 5 min.
[formula] • X: cpd concentration • Y: inhibition % • Top and Bottom: Plateaus in same units as Y • log IC50: same log units as X • HillSlope: Slope factor or Hill slope
The molecule `O=C(O)[C@@H](Cc1ncc(CN(Cc2cnc(C[C@H](C(=O)O)[C@H]3CCNC3)s2)Cc2cnc(C[C@H](C(=O)O)[C@H]3CCNC3)s2)s1)[C@H]1CCNC1` [Compound 121, (2S,2′S,2″S)-3,3′,3″-((nitrilotris(methylene))tris(thiazole-5,2-diyl))tris(2-((R)-pyrrolidin-3-yl)propanoic acid)] returned a 50% inhibitory concentration (IC50) of 1.53 nM.

Still in this assay, the particulars now being: HepG2 cells overexpressing ApoA protein, 24 h, ELISA of supernatant.
`O=C(O)[C@@H](Cc1cccc(CCN(Cc2cccc(C[C@H](C(=O)O)[C@H]3CCNC3)c2)C(=O)c2cccc(C[C@H](C(=O)O)[C@H]3CCNC3)c2)c1)[C@H]1CCNC1` [Compound 99, (S)-3-(3-(2-(3-((S)-2-carboxy-2-((R)-pyrrolidin-3-yl)ethyl)-N-(3-((S)-2-carboxy-2-((R)-pyrrolidin-3-yl)ethyl)benzyl)benzamido)ethyl)phenyl)-2-((R)-pyrrolidin-3-yl)propanoic acid]: the concentration for half-maximal inhibition (IC50) is 0.96 nM. Consider `O=C(O)[C@@H](Cc1cc2c(CN(Cc3cccc4sc(C[C@H](C(=O)O)[C@H]5CCNC5)cc34)Cc3cccc4sc(C[C@H](C(=O)O)[C@H]5CCNC5)cc34)cccc2s1)[C@H]1CCNC1` [Compound 101, (2S,2′S,2″S)-3,3′,3″-((nitrilotris(methylene))tris(benzo[b]thiophene-4,2-diyl))tris(2-((R)-pyrrolidin-3-yl)propanoic acid)], for which the IC50 is 2.71 nM. The molecule `O=C(O)[C@@H](Cc1cc(CN(Cc2cc(C[C@H](C(=O)O)[C@H]3CCNC3)cc3ccoc23)Cc2cc(C[C@H](C(=O)O)[C@H]3CCNC3)cc3ccoc23)c2occc2c1)[C@H]1CCNC1` [Compound 102, (2S,2′S,2″S)-3,3′,3″-((nitrilotris(methylene))tris(benzofuran-7,5-diyl))tris(2-((R)-pyrrolidin-3-yl)propanoic acid)] returned an IC50 of 0.74 nM.

`O=C(O)[C@@H](Cc1cc2ccc(CN(Cc3ccc4cc(C[C@H](C(=O)O)[C@H]5CCNC5)sc4c3)Cc3ccc4cc(C[C@H](C(=O)O)[C@H]5CCNC5)sc4c3)cc2s1)[C@H]1CCNC1` [Compound 103, (2S,2′S,2″S)-3,3′,3″-((nitrilotris(methylene))tris(benzo[b]thiophene-6,2-diyl))tris(2-((R)-pyrrolidin-3-yl)propanoic acid)]: the midpoint of inhibition, the IC50, lay at 2.11 nM.

In turn, `O=C(O)[C@@H](Cc1cc2cc(CN(Cc3ccc4sc(C[C@H](C(=O)O)[C@H]5CCNC5)cc4c3)Cc3ccc4sc(C[C@H](C(=O)O)[C@H]5CCNC5)cc4c3)ccc2s1)[C@H]1CCNC1` [Compound 104, (2S,2′S,2″S)-3,3′,3″-((nitrilotris(methylene))tris(benzo[b]thiophene-5,2-diyl))tris(2-((R)-pyrrolidin-3-yl)propanoic acid)] came in with a half-inhibitory concentration (IC50) of 1.04 nM. Consider `O=C(O)[C@@H](Cc1cccc(CCN(CCOc2cccc(C[C@H](C(=O)O)[C@H]3CCNC3)c2)C(=O)c2cccc(C[C@H](C(=O)O)[C@H]3CCNC3)c2)c1)[C@H]1CCNC1` [Compound 106, (S)-3-(3-(2-(3-((S)-2-carboxy-2-((R)-pyrrolidin-3-yl)ethyl)-N-(2-(3-((S)-2-carboxy-2-((R)-pyrrolidin-3-yl)ethyl)phenoxy)ethyl)benzamido)ethyl)phenyl)-2-((R)-pyrrolidin-3-yl)propanoic acid], for which the midpoint of inhibition, the IC50, lay at 1.84 nM. For `O=C(O)[C@@H](Cc1cccc(CCN(CCc2cccc(C[C@H](C(=O)O)[C@H]3CCNC3)c2)C(=O)Cc2cccc(C[C@H](C(=O)O)[C@H]3CCNC3)c2)c1)[C@H]1CCNC1` [Compound 107, (2S,2′S)-3,3′-((((2-(3-((S)-2-carboxy-2-((R)-pyrrolidin-3-yl)ethyl)phenyl)acetyl)azanediyl)bis(ethane-2,1-diyl))bis(3,1-phenylene))bis(2-((R)-pyrrolidin-3-yl)propanoic acid)], the IC50 was 1.66 nM. The molecule `O=C(O)[C@@H](Cc1cccc(CCN(CCc2cccc(C[C@H](C(=O)O)[C@H]3CCNC3)c2)C(=O)c2cccc(C[C@H](C(=O)O)[C@H]3CCNC3)c2)c1)[C@H]1CCNC1` [Compound 108, (2S,2′S)-3,3′-((((3-((S)-2-carboxy-2-((R)-pyrrolidin-3-yl)ethyl)benzoyl)azanediyl)bis(ethane-2,1-diyl))bis(3,1-phenylene))bis(2-((R)-pyrrolidin-3-yl)propanoic acid)] displayed a half-maximal inhibitory concentration (IC50) of 1.16 nM. Regarding `O=C(CN(CCOc1cccc(C[C@H](C(=O)O)[C@H]2CCNC2)c1)CCOc1cccc(C[C@H](C(=O)O)[C@H]2CCNC2)c1)c1cccc(C[C@H](C(=O)O)[C@H]2CCNC2)c1` [Compound 112, (2S,2′S)-3,3′-(((((2-(3-((S)-2-carboxy-2-((R)-pyrrolidin-3-yl)ethyl)phenyl)-2-oxoethyl)azanediyl)bis(ethane-2,1-diyl))bis(oxy))bis(3,1-phenylene))bis(2-((R)-pyrrolidin-3-yl)propanoic acid)], the midpoint of inhibition, the IC50, lay at 3.4 nM. `O=C(O)[C@@H](Cc1cccc(CN2CCN(Cc3cccc(C[C@H](C(=O)O)[C@H]4CCNC4)c3)CC2)c1)[C@H]1CCNC1` [Compound 117, (2S,2′S)-3,3′-((piperazine-1,4-diylbis(methylene))bis(3,1-phenylene))bis(2-((R)-pyrrolidin-3-yl)propanoic acid)] registered an IC50 of 2.58 nM. In turn, `O=C(O)[C@@H](Cc1cccc(COc2cc(OCc3cccc(C[C@H](C(=O)O)[C@H]4CCNC4)c3)cc(OCc3cccc(C[C@H](C(=O)O)[C@H]4CCNC4)c3)c2)c1)[C@H]1CCNC1` [Compound 122, (2S,2′S,2″S)-3,3′,3″-(((benzene-1,3,5-triyltris(oxy))tris(methylene))tris(benzene-3,1-diyl))tris(2-((R)-pyrrolidin-3-yl)propanoic acid)] displayed an IC50 of 1.87 nM.

The molecule `O=C(O)[C@@H](Cc1cccc(CN(Cc2cccc(C[C@H](C(=O)O)[C@H]3CCNC3)c2)Cc2ccc3oc(C[C@H](C(=O)O)[C@H]4CCNC4)cc3c2)c1)[C@H]1CCNC1` [Compound 126, (2S,2′S)-3,3′-(((((2-((S)-2-carboxy-2-((R)-pyrrolidin-3-yl)ethyl)benzofuran-5-yl)methyl)azanediyl)bis(methylene))bis(3,1-phenylene))bis(2-((R)-pyrrolidin-3-yl)propanoic acid)] returned an IC50 of 1.26 nM. The molecule `O=C(O)[C@@H](Cc1csc2ccc(CN(Cc3ccc4scc(C[C@H](C(=O)O)[C@H]5CCNC5)c4c3)Cc3ccc4scc(C[C@H](C(=O)O)[C@H]5CCNC5)c4c3)cc12)[C@H]1CCNC1` [Compound 128, (2S,2′S,2″S)-3,3′,3″-((nitrilotris(methylene))tris(benzo[b]thiophene-5,3-diyl))tris(2-((R)-pyrrolidin-3-yl)propanoic acid)] gave an IC50 of 1.34 nM. On the same count and under the same terms, under `O=C(CN(Cc1cccc(C[C@H](C(=O)O)[C@H]2CCNC2)c1)Cc1cccc(C[C@H](C(=O)O)[C@H]2CCNC2)c1)c1cccc(C[C@H](C(=O)O)[C@H]2CCNC2)c1` [Compound 130, (2S,2′S)-3,3′-((((2-(3-((S)-2-carboxy-2-((R)-pyrrolidin-3-yl)ethyl)phenyl)-2-oxoethyl)azanediyl)bis(methylene))bis(3,1-phenylene))bis(2-((R)-pyrrolidin-3-yl)propanoic acid)] stands 1.45 nM; under `O=C(O)[C@@H](Cc1cccc(COCC2CN(Cc3cccc(C[C@H](C(=O)O)[C@H]4CCNC4)c3)CCN2Cc2cccc(C[C@H](C(=O)O)[C@H]3CCNC3)c2)c1)[C@H]1CCNC1` (stereo partly drawn) [Compound 132, (2S,2′S)-3,3′-(((2-(((3-((S)-2-carboxy-2-((R)-pyrrolidin-3-yl)ethyl)benzyl)oxy)methyl)piperazine-1,4-diyl)bis(methylene))bis(3,1-phenylene))bis(2-((R)-pyrrolidin-3-yl)propanoic acid)], 0.88 nM; under `Cn1c(C[C@H](C(=O)O)[C@H]2CCNC2)nc2ccc(CN(Cc3ccc4nc(C[C@H](C(=O)O)[C@H]5CCNC5)n(C)c4c3)Cc3ccc4nc(C[C@H](C(=O)O)[C@H]5CCNC5)n(C)c4c3)cc21` [Compound 133, (2S,2′S,2″S)-3,3′,3″-((nitrilotris(methylene))tris(1-methyl-1H-benzo[d]imidazole-6,2-diyl))tris(2-((R)-pyrrolidin-3-yl)propanoic acid)], 0.94 nM. Molecule `O=C(O)[C@@H](Cc1cccc(CN(CCOc2cccc(C[C@H](C(=O)O)[C@H]3CCNC3)c2)C(=O)CNc2cccc(C[C@H](C(=O)O)[C@H]3CCNC3)c2)c1)[C@H]1CCNC1` [Compound 134, (S)-3-(3-((2-((3-((S)-2-carboxy-2-((R)-pyrrolidin-3-yl)ethyl)benzyl)(2-(3-((S)-2-carboxy-2-((R)-pyrrolidin-3-yl)ethyl)phenoxy)ethyl)amino)-2-oxoethyl)amino)phenyl)-2-((R)-pyrrolidin-3-yl)propanoic acid] had an IC50 of 0.85 nM.

One may read the IC50 as the concentration at which inhibition is half-maximal. A low value points to inhibition by little substance.
